“Also recorded” adds a separate entry of the source.
System: ethanol/HCl mixture-induced gastric lesions
Assay: ethanol/HCl mixture-induced gastric lesion test in rats
Assay type: in vivo, Male Sprague Dawley rats
Conditions: for inhibition of the formation of gastric lesions (gastric lesion score) relative to vehicle alone: 200 μmol/kg by oral gavage 30 min before 60% ethanol in 150 mM HCl intragastrically, lesions scored 60 min later, vehicle 0.5% Methocel, FIG. 1
Protocol: The ethanol/HCl mixture-induced gastric lesion test in rats described by Takeuchi et al, J. Pharmacol. Exp. Ther., 286: 115-121 (1998), was used to evaluate gastric lesion activity. Male Sprague Dawley rats (Charles River Laboratories, Wilmington, Ma.) weighing 230-250 g were used for the experiments. The rats were housed with laboratory chow and water ad libitum prior to the study. The rats were fasted for 24 hours with free access to water and then dosed by oral gavage with vehicle or with the test compounds given at a volume of 0.5 ml/100 g body weight. Thirty minutes after oral dosing all the rats received 1 ml of a solution of 60% ethanol in 150 mM HCl intragastrically. Food was withheld after dosing. Sixty minutes after ethanol/HCl, rats were euthanized by pre-charged CO2. The stomachs were dissected along the greater curvature, washed with a directed stream of 0.9% saline and pinned open on a sylgard based petri dish for examination of the hemorrhagic lesions. Gastric lesion score was expressed in mm and calculated by summing the length of each lesion as described by Al-Ghamdi et al, J. Int. Med. Res., 19:2242 (1991). Results are expressed as the mean ± standard error of the mean. Statistical analysis were conducted using ANOVA test followed by a Student-Newman-Keuls post-hoc test using the Abacus Concepts, Super Anova computer program (Abacus Concepts, Inc., Berkeley, Calif.).

Compound	inhibition of the formation of gastric lesions (gastric lesion score) relative to vehicle alone	inhibition of the formation of gastric lesions (gastric lesion score) relative to lanzoprazole (200 μmol/kg by oral gavage 30 min before ethanol/HCl, p<0.05, FIG. 1)
Cc1c(CC(F)(F)F)ccnc1C[S+]([O-])c1nc2ccccc2n1COC(=O)CCC(=O)N(Cc1ccccc1)CC(C)(C)SN=O (stereo not drawn) [Example 2, {2-({[3-Methyl-4-(2,2,2-trifluoroethyl)-2-pyridyl]methyl}sulfinyl)benzimidazolyl]-methyl-3-{N-[2-methyl-2-(nitrosothio)-propyl]-N-benzylcarbamoyl}propanoate]	significantly inhibited the formation of gastric lesions	inhibited the formation of gastric lesions
Cc1c(OCC(F)(F)F)ccnc1C[S+]([O-])c1nc2ccccc2[nH]1 (stereo not drawn) [Lanzoprazole, 2-(((3-methyl-4-(2,2,2-trifluoro-ethoxy)-2-pyridinyl)methyl)sulfinyl)-1H-benzimidazole, reference compound]	did not significantly inhibit the formation of gastric lesions; also recorded: failed to significantly inhibit the formation of gastric lesions	

— patent US7332505B2, “Nitrosated and nitrosylated proton pump inhibitors, compositions and methods of use” (Nitromed, Inc., priority 1999, dated 2008)
